Experimental data taken from the supplement of paper PMC10307832.

What was measured:
Assay in all cases: relative viability (nuclei count vs DMSO), 5 days (fraction); higher = more cells survive
[1] = compound: CC1=C(C(=NN1)C)CC2=C(C3=C(S2)N(C(=O)N(C3=O)C)CC(C)C)C(=O)N4C[C@@H](CO4)O + COc1cc2c(Oc3ccc(NC(=O)C4(C(=O)Nc5ccc(F)cc5)CC4)cc3F)ccnc2cc1OCCCN1CCOCC1 [Foretinib] (partner 0.25 µM)
Procedure, shortened: (§1)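 Lung cancer cell lines, seeded in 1536-well plates, were treated the following day by pin tool with a single drug or with five library-drug doses (not always all listed) in √10 steps on top of a fixed anchor-drug dose. Cells were fixed and nuclei stained in one step after 5 days, and nuclei were counted. Relative viability is the nuclei count for treated wells divided by that for vehicle wells, reported as medians of duplicate plates.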

IDH-C35 + OSI-027 = compound: Cc1ccccc1C(C(=O)NC1CCCCC1)N(C(=O)Cn1ccnc1C)c1cccc(F)c1 [IDH-C35] + COc1cccc2cc(-c3nc([C@H]4CC[C@H](C(=O)O)CC4)n4ncnc(N)c34)[nH]c12 [OSI-027] (partner 0.5 µM)
Procedure, shortened: as §1

IDH-C35 + Lapatinib = compound: Cc1ccccc1C(C(=O)NC1CCCCC1)N(C(=O)Cn1ccnc1C)c1cccc(F)c1 [IDH-C35] + CS(=O)(=O)CCNCc1ccc(-c2ccc3ncnc(Nc4ccc(OCc5cccc(F)c5)c(Cl)c4)c3c2)o1 [Lapatinib] (partner 2 µM)
Procedure, shortened: as §1

IDH-C35 + Pemetrexed = compound: Cc1ccccc1C(C(=O)NC1CCCCC1)N(C(=O)Cn1ccnc1C)c1cccc(F)c1 [IDH-C35] + Nc1nc2[nH]cc(CCc3ccc(C(=O)N[C@@H](CCC(=O)O)C(=O)O)cc3)c2c(=O)[nH]1 [Pemetrexed] (partner 0.2 µM)
Procedure, shortened: as §1

Cell Line	relative viability ([1]; first compound 0.0025 µM)	relative viability ([1]; first compound 0.007906 µM)	relative viability ([1]; first compound 0.025 µM)	relative viability ([1]; first compound 0.07906 µM)	relative viability ([1]; first compound 0.25 µM)	relative viability (IDH-C35 + OSI-027; first compound 0.08 µM)	relative viability (IDH-C35 + OSI-027; first compound 0.253 µM)	relative viability (IDH-C35 + OSI-027; first compound 0.8 µM)	relative viability (IDH-C35 + OSI-027; first compound 2.53 µM)	relative viability (IDH-C35 + OSI-027; first compound 8 µM)	relative viability (IDH-C35 + Lapatinib; first compound 0.08 µM)	relative viability (IDH-C35 + Lapatinib; first compound 0.253 µM)	relative viability (IDH-C35 + Lapatinib; first compound 0.8 µM)	relative viability (IDH-C35 + Lapatinib; first compound 2.53 µM)	relative viability (IDH-C35 + Lapatinib; first compound 8 µM)	relative viability (IDH-C35 + Pemetrexed; first compound 0.08 µM)	relative viability (IDH-C35 + Pemetrexed; first compound 0.253 µM)	relative viability (IDH-C35 + Pemetrexed; first compound 0.8 µM)	relative viability (IDH-C35 + Pemetrexed; first compound 2.53 µM)	relative viability (IDH-C35 + Pemetrexed; first compound 8 µM)
201T	1.18	1.16	1.02	1.11	1.2	0.845	0.75	0.681	0.802	0.777	1.05	1.04	1.02	0.973	1.01	0.329	0.351	0.367	0.343	0.321
A549	1.03	1.02	0.906	1	1.1	–	–	–	–	–	0.956	1	0.988	0.947	1.03	–	–	–	–	–
A-427	1.29	1.22	0.937	1.11	1.14	0.477	0.49	0.463	0.471	0.448	1.03	0.978	0.942	1.02	1.03	0.952	0.981	0.899	1.02	1.04
ABC-1	1.02	1.06	0.955	1.07	1	0.528	0.516	0.582	0.531	0.441	1.3	1	1.03	1.16	1.06	–	–	–	–	–
BEN	0.666	0.629	0.577	0.661	0.596	0.308	0.318	0.298	0.328	0.261	0.796	0.805	0.724	0.718	0.865	0.633	0.929	0.73	0.762	0.857
CAL-12T	1.08	1.3	1.05	1.25	1.17	0.642	0.759	0.667	0.704	0.489	0.655	0.578	0.728	0.749	0.7	1.23	1.14	1.37	1.15	1.12
COR-L23	0.947	1.07	0.8	0.87	0.846	0.843	0.696	0.861	0.829	0.731	1.05	1.09	0.932	1	0.938	0.18	0.205	0.2	0.201	0.173
COR-L 105	1.1	0.899	0.974	1.03	1.06	0.588	0.771	0.735	0.727	0.628	0.33	0.359	0.337	0.34	0.369	1.03	1.19	0.954	0.912	1
Calu-6	0.984	0.813	0.715	0.809	0.897	–	–	–	–	–	1.04	1.04	1.03	1.06	1.01	–	–	–	–	–
